Ends that are not written are not given here.
Test system: lactose intolerant individuals

Which results are given for “secretin (HSDGTFTSELSRLRDSARLQRLLQGLV; ends and bridges not checked; UniProt P63298 33-59, looked up)”?
time after infusion until some slight symptoms of lactose intolerance started again (one severely lactose intolerant individual, one-time infusion): about 3 months; symptoms of lactose intolerance after consuming dairy and other lactose containing products (one-time intravenous infusion, 1 CU per kilogram of body weight over about 1 to 4 minutes, prolonged period of time after treatment, listed as secretion): without experiencing any of the symptoms of lactose intolerance

Reference: US6599882B1, “Secretin and secretin pharmaceuticals for treating lactose intolerance” (priority 1999, dated 2003)
